Data as given in patent publication US10709714B2 (CL BioSciences LLC, priority 2013, dated 2020).
Entries after “also recorded” stand apart in the source; their conditions may differ. Marks after values point to notes of the source that are not given here.

Tests used:
[1] = biological target: T1, CCK2 receptor (Homo sapiens, UniProt P32239); assay: Gastrin-stimulated cAMP production and calcitonin release/transcription in MTC-SK cells; type: cell-based; details: MTC-SK cells
T1 construct: Gastrin stimulated both cAMP as well as calcitonin release from the well-differentiated human MTC cell line, MTC-SK; endogenous in cells; host or cells: MTC-SK (human medullary thyroid carcinoma cell line)
T1 sequence (P32239 1-447): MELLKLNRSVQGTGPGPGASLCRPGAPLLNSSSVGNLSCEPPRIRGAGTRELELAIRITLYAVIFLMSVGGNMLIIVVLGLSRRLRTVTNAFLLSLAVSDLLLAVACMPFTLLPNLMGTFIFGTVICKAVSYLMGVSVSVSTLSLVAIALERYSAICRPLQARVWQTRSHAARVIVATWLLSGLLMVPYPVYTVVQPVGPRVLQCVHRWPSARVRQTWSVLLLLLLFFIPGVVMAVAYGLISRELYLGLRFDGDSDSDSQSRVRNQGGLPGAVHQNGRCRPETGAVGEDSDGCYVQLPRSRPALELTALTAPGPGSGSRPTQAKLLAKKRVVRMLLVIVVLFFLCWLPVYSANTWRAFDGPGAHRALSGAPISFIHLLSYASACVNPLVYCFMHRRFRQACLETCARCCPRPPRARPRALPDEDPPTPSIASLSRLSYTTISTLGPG

[2] = system: human PTH cells co-cultured with MTC-SK cell line; assay: PTH cell / MTC-SK co-culture: PTH and calcitonin transcription and secretion; type: cell-based; details: preincubation 10 mins, YF476 10 nM
Description: Human PTH cells isolated from surgical specimens were co-cultured with the MTC-SK cell line. […] These effects could be reversed by preincubation (10 mins) with the selective CCK2 receptor antagonist, YF476 (10 nM). […] PET=polyester membrane ([…]).
These effects were reversed by preincubation with the selective CCK2 antagonist, YF476.

[3] = system: calvarial osteoblasts, hFOB, BMMSCs; assay: Proliferation (BrdU uptake) of bone-derived cells; type: cell-based, mouse, human; details: pre-incubation
[4] = system: ovariectomized CD-1 mice; assay: Bone strength (Instron), Model 1 mouse OVX; type: in vivo
[5] = system: ovariectomized CD-1 mice; assay: Bone histomorphometry, Model 1 mouse OVX; type: in vivo; details: OVX CD-1 mice; GA single s.c.; 8 weeks
Excerpt: Patterns of bone mineralization (BM: decreased), resorption cavities (RC: increased) and osteoclasts (stained multinuclear cells (two arrows): increased) were affected by OVX. These effects were reversed by drug treatment. In one aspect, this means that targeting CCK2 receptors normalizes bone morphology irrespective of low estrogen levels.
Gastrin-antagonist treatment reversed these phenomena (FIG. 45).

[6] = system: ovariectomized CD-1 mice; assay: Circulating blood markers, Model 1 mouse OVX; type: in vivo
Description: Ovariectomy increased all three bone markers, PINP, CTX1 and osteocalcin. […] CON=control animals, OVX=ovariectomized animals, OVX+GA=gastrin antagonist treated ovariectomized animals. Mean±SEM. *p<0.05 vs. CON, **p<0.05 vs. OVX alone.
Circulating bone biomarkers were also altered by OVX. Specifically, PINP was increased (0.19±0.01 ng/ml vs. 0.1y±0.006, p<0.05) as was CTx-1 (0.60±0.14 ng/ml vs. 0.29±0.13, p<0.05) and osteocalcin was elevated (6.7±2.3 ng/ml vs. 4.1±1.2, p<0.05). Treatment with the antagonist attenuated each of these three ovariectomy-mediated alterations.

[7] = system: ovariectomized CD rats; assay: Bone strength (Instron), Model 2 rat OVX; type: in vivo
[8] = system: ovariectomized CD rats; assay: Bone histomorphometry, Model 2 rat OVX; type: in vivo; details: GA single s.c., 8 weeks
Excerpt: These effects were reversed by drug treatment. In one aspect, this reflects that targeting CCK2 receptors normalizes bone morphology irrespective of low estrogen levels.
Gastrin-antagonist treatment reversed these phenomena (FIG. 50).

[9] = system: ovariectomized CD rats; assay: MicroCT of trabecular and cortical bone, Model 2 rat OVX
Description: Microcomputed tomography (MicroCT) and bone bending as well as osmium uptake and PCR were used to evaluate bone dynamics and osteoporotic features in the different animal models. MicroCT assesses density and volume of both the trabecular and cortical bones. Measurements of the radius and circumference of the cortical bone can be undertaken. Calculations of the connectivity density, the structural model index (SMI) as well as the stiffness (all measures of structure) of the bone can be made. The polar moment of inertia (pMOI) as well as fracture and workloads identify the underlying bone strength.
Both mice and rats were exposed to the PPI, omeprazole, while the Mastomys were exposed to the H2 Receptor antagonist, loxitidine. GA administration was a single subcutaneous injection at the start of acid inhibition. Pharmacokinetically, this dose ranges between 15-20 nmol over an 8 week period.
Three groups were included for each animal model: a) Group A=placebo/saline treated (no OVX/Controls); b) Group B=OVX+Acid Inhibitory therapy (OVX); and c) Group C=GA treated ovariectomized animals (OVX+GA). At the termination of study (2 months), we evaluated whether the GA reversed the OVX-mediated alterations in bone parameters (microCT, bone strength and histomorphometry as well as circulating markers).
At the start of GA treatment, animals were 98 days (3.2 months) and at study termination, they were 163 days (5.4 months).

[10] = OVX CD-1 mice + omeprazole, GA 15 ug/animal single s.c., 8 weeks
[11] = OVX CD-1 mice, GA-treated vs control
[12] = OVX CD rats + omeprazole, GA 50 ug/animal single s.c., 8 weeks
[13] = OVX CD rats, GA-treated vs control
[14] = OVX CD rats + omeprazole, GA 50 ug/animal single s.c., 8 weeks, cortical bone
[15] = OVX CD rats + omeprazole, GA 50 ug/animal single s.c., 8 weeks, trabecular bone
[16] = OVX CD rats + omeprazole, GA 50 ug/animal single s.c., 8 weeks, trabecular bone, listed as GA
[17] = OVX CD rats + omeprazole, GA 50 ug/animal single s.c., 8 weeks, trabecular bone, listed as Gastrin antagonist
[18] = OVX CD rats, GA-treated vs control, cortical bone
[19] = OVX CD rats, GA-treated vs control, trabecular bone

SMILES: CNc1cccc(NC(=O)N[C@@H]2N=C(c3ccccn3)c3ccccc3N(CC(=O)C(C)(C)C)C2=O)c1 [YF476, netazepide]
- effect on gastrin-mediated calcitonin secretion [1]: reversed
- effect on gastrin-stimulated cAMP production [1]: reversed
- effect alone on cAMP production ([1]; without gastrin): no significant effect
- effect on gastrin effects in co-culture [2]: reversed
- effect on gastrin-stimulated proliferation [3]: not inhibited; also recorded: not reversed
- Max Load [4, 10]: 44.1
- Stiffness [4, 10]: 285
- Total Work [4, 10]: 19.4
- Yield (Stiffness) [4, 10]: 256
- Fracture Load ([4]; OVX CD-1 mice + omeprazole, GA 15 ug/animal single s.c., 8 weeks, listed as GA): 42.8
- Fracture Load ([4]; OVX CD-1 mice + omeprazole, GA 15 ug/animal single s.c., 8 weeks, listed as gastrin antagonist): 43±6
- % Change Fracture Load [4, 11]: −24%*
- % Change Max Load [4, 11]: −28%*
- % Change Stiffness [4, 11]: −3%**
- % Change Total Work [4, 11]: −4%**
- % Change Yield (Stiffness) [4, 11]: −5%**
- effect on OVX changes in bone mineralization, resorption cavities and TRAP-positive osteoclasts [5]: reversed
- CTX-1 [6, 10]: 053 ng/mL
- ESR (circulating estrogen) [6, 10]: 1.47 pg/mL
- Gastrin (circulating) [6, 10]: 2971 pg/mL
- Osteocalcin [6, 10]: 5.3 ng/mL
- PINP [6, 10]: 0.169 ng/mL
- PTH (circulating) [6, 10]: 92.1 pg/mL
- % Change CTX-1 [6, 11]: −9%**
- % Change ESR [6, 11]: −71%*
- % Change Gastrin [6, 11]: +22%
- % Change Osteocalcin [6, 11]: +30%**
- % Change PINP [6, 11]: 0%**
- % Change PTH [6, 11]: +79%*
- Fracture Load [7, 12]: 276
- Max Load [7, 12]: 282
- Stiffness [7, 12]: 565
- Total Work [7, 12]: 276
- Yield (Stiffness) [7, 12]: 508
- % Change Fracture Load [7, 13]: −8%
- % Change Max Load [7, 13]: 0%
- % Change Stiffness [7, 13]: −2%**
- % Change Total Work [7, 13]: 0%
- % Change Yield (Stiffness) [7, 13]: −2%**
- effect on OVX changes in bone mineralization, resorption cavities and TRAP-positive osteoclasts [8]: reversed
- BS [9, 14]: 43.3
- BV/TV [9, 14]: 0.965
- Ct. Th [9, 14]: 0.68
- pMOI [9, 14]: 14.03
- Dens (Apparent Density, cortical) ([9]; OVX CD rats + omeprazole, GA 50 ug/animal single s.c., 8 weeks, cortical bone, listed as GA): 1098
- Dens (Apparent Density, cortical) ([9]; OVX CD rats + omeprazole, GA 50 ug/animal single s.c., 8 weeks, cortical bone, listed as Gastrin-antagonist): 1098±24
- BS [9, 15]: 154
- BV/TV [9, 15]: 0.189
- Conns-Dens [9, 15]: 68.58
- Tb. N [9, 15]: 2.17
- Tb. Sp [9, 15]: 0.48
- Tb. Th [9, 15]: 0.09
- Dens (Apparent Density, trabecular) [9, 16]: 200.5
- SMI [9, 16]: 1.33
- Dens (Apparent Density, trabecular) [9, 17]: 204±27
- SMI [9, 17]: 1.3±0.17
- % Change BS [9, 18]: −13%*
- % Change BV/TV [9, 18]: 0%**
- % Change Ct. Th [9, 18]: +12%*
- % Change Dens (Apparent Density, cortical) [9, 18]: −4%*^,**
- % Change pMOI [9, 18]: −22%*
- % Change BS [9, 19]: −21%
- % Change BV/TV [9, 19]: −30%**
- % Change Conns-Dens [9, 19]: +8%
- % Change Dens (Apparent Density, trabecular) [9, 19]: −30%*^, **
- % Change SMI [9, 19]: +143%*
- % Change Tb. N [9, 19]: −18%**
- % Change Tb. Sp [9, 19]: +9%**
- % Change Tb. Th [9, 19]: −13%**
